Measured values taken from patent US20240316038A1, “APOL1 INHIBITORS AND METHODS OF USE” (Maze Therapeutics, Inc., priority 2021, published 2024).
pEC50: −log10 of the molar value.

What was measured:
APOL1 G2 [1] = biological target: T1, APOL1 G2 (Homo sapiens, UniProt O14791, DEL388-389); assay: Rescue of HEK293 cell death caused by overexpression of APOL1 (CellTiter-Glo luminescence), HEK293/T-REx APOL1 G2/clone #2; format: cell-based; details: reversal of cell death caused by overexpression of APOL1; geometric mean of at least 2 assay runs, † = single assay run (technical duplicate)
T1 construct: expressed in transfected cells; host or cells: HEK293 T-REx clonal lines: HEK T-REx/GCaMP6f/APOL1 G2 K6.3 in A1, HEK293/T-REx APOL1 G2/clone #2 in A2
T1 sequence (O14791 with tags, fused parts or gaps DEL388-389): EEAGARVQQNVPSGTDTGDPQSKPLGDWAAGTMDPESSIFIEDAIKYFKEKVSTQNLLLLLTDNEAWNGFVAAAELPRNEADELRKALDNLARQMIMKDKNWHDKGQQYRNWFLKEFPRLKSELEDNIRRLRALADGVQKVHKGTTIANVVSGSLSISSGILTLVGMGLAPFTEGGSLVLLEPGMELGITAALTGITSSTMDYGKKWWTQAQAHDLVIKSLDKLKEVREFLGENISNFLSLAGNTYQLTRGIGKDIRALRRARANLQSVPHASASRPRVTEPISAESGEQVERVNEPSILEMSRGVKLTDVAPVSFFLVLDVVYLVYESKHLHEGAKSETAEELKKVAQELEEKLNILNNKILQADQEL
Procedure, shortened: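 HEK293/T-REx APOL1 G2 clone #2 cells, 5,000/well, induced with 6 ng/mL doxycycline and exposed to compound (8-point, 3-fold dilutions, 0.5% DMSO) for 17 h at 37 °C. Viability by CellTiter-Glo luminescence; EC50 for reversal of APOL1-induced death from a four-parameter logistic fit, geometric mean of ≥2 runs.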

APOL1 G2 [2] = biological target: T1, APOL1 G2; assay: APOL1 calcium transport inhibition assay (GCaMP6f calcium influx, FLIPR) in HEK T-REx/GCaMP6f/APOL1 G2 K6.3 cells; format: cell-based; details: inhibition of APOL1-mediated calcium influx; geometric mean of at least 2 assay runs, † = single assay run (technical duplicate)
Procedure, shortened: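 HEK293 cells stably expressing GCaMP6f, APOL1 G2 induced 6 h with doxycycline (20 ng/mL added), then washed into Ca2+-free Tyrode's buffer pH 7.4. Compounds (8-point dose response) preincubated 10 min at room temperature, then Ca2+ injected to 5 mM final and influx read on FLIPR. AC50 reported as geometric mean of runs.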

In the case of `CCN(CCc1cccc(Cl)c1)C[C@H](O)COc1ccc(N(C)S(C)(=O)=O)cc1` [Compound 60, (S)-N-(4-(3-((3-chlorophenethyl)(ethyl)amino)-2-hydroxypropoxy)phenyl)-N-methylmethanesulfonamide], the pEC50 (APOL1 G2 [1]) was 6.51 and the AC50 (APOL1 G2 [2]) was under 0.267 µM.
Work on `C[C@@H]1CN(CCc2cccc(Cl)c2)C[C@H]1COc1ccc(S(=O)(=O)CCS(C)(=O)=O)cc1` [Compound 107, (3S,4S)-1-[2-(3-chlorophenyl)ethy 1]-3-{[4-(2-methanesulfonyl-ethanesulfonyl)phenoxy]methyl}-4-methyl-pyrrolidine] yielded a pEC50 (APOL1 G2 [1]) of 7.09 and an AC50 (APOL1 G2 [2]) of 0.0919 µM.
For `CS(=O)(=O)CCCS(=O)(=O)c1ccc(OC[C@@H]2CN(CCc3cccc(Cl)c3)CCN2)cc1` [Compound 184, (3S)-1-[2-(3-chlorophenyl)ethyl]-3-{[4-(3-methanesulfonylpropanesulfonyl)phenoxy]methyl}piperazine], the pEC50 (APOL1 G2 [1]) was 6.21 and the AC50 (APOL1 G2 [2]) was 0.215 µM.
For `CS(=O)(=O)c1ccc(OC[C@H]2CCCN(CC(O)c3cccc(Cl)c3)C2)cc1` (stereo partly drawn) [Compound 17, 1-(3-chlorophenyl)-2-((S)-3-((4-(methylsulfonyl)phenoxy)methyl)piperidin-1-yl)ethan-1-ol], the pEC50 (APOL1 G2 [1]) was 6.17 and the AC50 (APOL1 G2 [2]) was 1.37 µM.
`O=S(=O)(c1ccc(OC[C@@H]2CN(CCc3cccc(Cl)c3)CCN2)cc1)C1CNC1` [Compound 185, (3S)-3-{[4-(azetidine-3-sulfonyl)phenoxy]methyl}-1-[2-(3-chlorophenyl)ethyl]piperazine] showed a pEC50 (APOL1 G2 [1]) of 6.62 and an AC50 (APOL1 G2 [2]) of 0.322 µM.
For `C[C@@H]1CN(CCc2cc(Cl)cc(C#N)c2)C[C@H]1COc1ccc(S(=O)(=O)CCCS(C)(=O)=O)cc1` [Compound 167, 3-chloro-5-{2-[(3S,4S)-3-{[4-(3-methanesulfonylpro-panesulfonyl)phe-noxy]methyl}-4-methylpyrrolidin-1-yl]ethyl}benzonitrile], the pEC50 (APOL1 G2 [1]) was 7.17 and the AC50 (APOL1 G2 [2]) was 0.314 µM.
`CC(Cc1cccc(Cl)c1)NC[C@@H](O)COc1ccc(N(C)S(C)(=O)=O)cc1` (single isomer, unassigned) [Compound 89, N-(4-((R)-3-(((R) or (S)-1-(3-chlorophenyl)propan-2-yl)amino)-2-hydroxypropoxy)phe-nyl)-N-methylmethanesulfon-amide] showed a pEC50 (APOL1 G2 [1]) of 5.69 and an AC50 (APOL1 G2 [2]) of 0.449 µM.
For `CN(c1ccc(OC[C@@H]2CCN(CCc3cccc(Cl)c3)C2)cc1)S(C)(=O)=O` [Compound 50, (R)-N-(4-((1-(3-chlorophenethyl)pyrrolidin-3-yl)methoxy)phenyl)-N-methylmethanesulfonamide], the pEC50 (APOL1 G2 [1]) was 5.69 and the AC50 (APOL1 G2 [2]) was 1.32 µM.
Work on `CC(Cc1cccc(Cl)c1)NC[C@H](O)COc1ccc(N(C)S(C)(=O)=O)cc1` (single isomer, unassigned) [Compound 95, N-(4-((S)-3-(((S) or (R)-1-(3-chlorophenyl)propan-2-yl)amino)-2-hydroxypropoxy)phe-nyl)-N-methylmethanesulfon-amide] yielded a pEC50 (APOL1 G2 [1]) of 5.16 and an AC50 (APOL1 G2 [2]) of 1.54 µM.
`CN(c1ccc(OC[C@H](O)CN2CCC(c3cccc(Cl)c3)C2)cc1)S(C)(=O)=O` (single isomer, unassigned) [Compound 79, N-(4-((R)-3-((R) or (S)-3-(3-chlorophenyl)pyrro-lidin-1-yl)-2-hydroxypropoxy)phe-nyl)-N-methylmethanesulfon-amide] gave a pEC50 (APOL1 G2 [1]) of under 4.86 and an AC50 (APOL1 G2 [2]) of 1.29 µM.
For `C[C@H](CNCCc1cccc(Cl)c1)COc1ccc(N(C)S(C)(=O)=O)cc1` [Compound 61, (R)—N-(4-(3-((3-chlorophenethyl)amino)-2-methylpropoxy)phenyl)-N-methylmethanesulfonamide], the pEC50 (APOL1 G2 [1]) was 6.03 and the AC50 (APOL1 G2 [2]) was 0.376 µM.
`CC(C)(Cc1cccc(Cl)c1)NC[C@@H](O)COc1ccc(S(C)(=O)=O)cc1` [Compound 97, (R)-1-((1-(3-chlorophenyl)-2-methylpropan-2-yl)amino)-3-(4-(methylsulfonyl)phe-noxy)propan-2-ol] showed a pEC50 (APOL1 G2 [1]) of 6.34 and an AC50 (APOL1 G2 [2]) of 0.314 µM.
For `CS(=O)(=O)c1ccc(OC[C@@H]2CCCN(CC(O)c3cccc(Cl)c3)C2)cc1` (single isomer, unassigned) [Compound 22, (S) or (R)-1-(3-chlorophenyl)-2-((R)-3-((4-(methylsulfonyl)phenoxy)methyl)piperidin-1-yl)ethanol], the pEC50 (APOL1 G2 [1]) was 5.18 and the AC50 (APOL1 G2 [2]) was 6.41 µM.
Work on `COCCS(=O)(=O)c1ccc(OC[C@H]2CN(CCc3cccc(Cl)c3)C[C@@H]2C)cc1` (racemic) [Compound 109, rac-trans-1-[2-(3-chlorophenyl)ethyl]-3-{[4-(2-methoxyethane-sulfonyl)phenoxy]methyl}-4-methylpyrrolidine] yielded a pEC50 (APOL1 G2 [1]) of 6.30 and an AC50 (APOL1 G2 [2]) of under 0.105 µM.
For `CN(c1ccc(OC[C@H](O)CN2CCOC(c3cccc(Cl)c3)C2)cc1)S(C)(=O)=O` (single isomer, unassigned) [Compound 84, N-(4-((R)-3-((R) or (S)-2-(3-chlorophenyl)morpho-lino)-2-hydroxypropoxy)phe-nyl)-N-methylmethanesulfon-amide], the pEC50 (APOL1 G2 [1]) was under 4.52 and the AC50 (APOL1 G2 [2]) was over 25 µM.
For `C[C@@H]1CN(CC(O)c2cc(C#N)cc(C#N)c2)C[C@H]1COc1ccc(S(C)(=O)=O)cc1` (single isomer, unassigned) [Compound 130, 5-[(1R or 1S)-1-hydroxy-2-[(3S,4S)-3-[(4-methanesulfonylphenoxy)methyl]-4-methylpyrrolidin-1-yl]ethyl]benzene-1,3-dicarbonitrile], the pEC50 (APOL1 G2 [1]) was under 5.00 and the AC50 (APOL1 G2 [2]) was 2.17 µM.
Work on `CC1CNC(COc2ccc(S(C)(=O)=O)cc2)CN1CCc1cccc(Cl)c1` (single isomer, unassigned) [Compound 213, rac-trans or cis-(2R,5S)-1-[2-(3-chlorophenyl)ethyl]-5-[(4-methanesulfonylphenoxy)methyl]-2-methylpiperazine] yielded a pEC50 (APOL1 G2 [1]) of 6.02 and an AC50 (APOL1 G2 [2]) of 0.877 µM.
Work on `C[C@@H]1CN(CCc2cc(Cl)cc(C#N)c2)C[C@H]1COc1ccc(S(=O)(=O)C2CNC2)cc1` [Compound 173, 3-{2-[(3S,4S)-3-{[4-(azetidine-3-sulfonyl)phenoxy]methyl}-4-methylpyrrolidin-1-yl]ethyl}-5-chlorobenzonitrile] yielded a pEC50 (APOL1 G2 [1]) of 6.70 and an AC50 (APOL1 G2 [2]) of 0.491 µM.
With `CN(c1ccc(OC[C@@H](O)CNCCc2cc(Cl)ccc2Cl)cc1)S(C)(=O)=O` [Compound 90, (S)-N-(4-(3-((2,5-dichlorophenethyl)amino)-2-hydroxypropoxy)phe-nyl)-N-methylmethanesulfon-amide] the pEC50 (APOL1 G2 [1]) was 5.84 and the AC50 (APOL1 G2 [2]) was 0.515 µM.
With `CS(=O)(=O)c1ccc(CCC2CCCN(CCc3cccc(Cl)c3)C2)cc1` (single isomer, unassigned) [Compound 40, (S) or (R)-1-(3-chlorophenethyl)-3-(4-(methylsulfonyl)phenethyl)piperidine] the pEC50 (APOL1 G2 [1]) was 6.13 and the AC50 (APOL1 G2 [2]) was under 0.118 µM.
In the case of `CS(=O)(=O)c1ccc(OC[C@@H]2CCCN(CC(O)c3cccc(Cl)c3)C2)cc1` (single isomer, unassigned) [Compound 21, (R) or (S)-1-(3-chlorophenyl)-2-((R)-3-((4-(methylsulfonyl)phenoxy)methyl)piperidin-1-yl)ethanol], the pEC50 (APOL1 G2 [1]) was 5.99 and the AC50 (APOL1 G2 [2]) was 0.623 µM.
`CC1CC(COc2ccc(S(C)(=O)=O)cc2)CN1CCc1cccc(Cl)c1` (single isomer, unassigned) [Compound 54, rac-cis or trans-1-(3-chlorophenethyl)-2-methyl-4-((4-(methylsulfonyl)phenoxy)methyl)pyrrolidine] was tested, and the pEC50 (APOL1 G2 [1]) was under 4.52 and the AC50 (APOL1 G2 [2]) was under 0.114 µM.
Work on `CC(C)(CO)S(=O)(=O)c1ccc(OC[C@@H]2CN(CCc3cc(Cl)cc(C#N)c3)CCN2)cc1` [Compound 183, 3-chloro-5-{2-[(3S)-3-{[4-(1-hydroxy-2-methylpropane-2-sulfonyl)phenoxy]methyl}pi-perazin-1-yl]ethyl}benzo-nitrile] yielded a pEC50 (APOL1 G2 [1]) of 6.80 and an AC50 (APOL1 G2 [2]) of 0.149 µM.
`C[C@@H]1CN(CCc2cccc(Cl)c2)C[C@H]1COc1ccc(S(=O)(=O)CCCS(C)(=O)=O)cc1` (single isomer, unassigned) [Compound 177, (3S,4S or 3R,4R)-1-[2-(3-chlorophenyl)eth-yl]-3-{[4-(3-methanesulfonylpro-panesulfonyl)phe-noxy]methyl}-4-methylpyrrolidine] showed a pEC50 (APOL1 G2 [1]) of 5.74 and an AC50 (APOL1 G2 [2]) of 2.86 µM.
In the case of `CC(CN1C[C@@H](COc2ccc(S(C)(=O)=O)cc2)[C@H](C)C1)c1cc(Cl)cc(C#N)c1` (stereo partly drawn) [Compound 146, 3-chloro-5-[1-[(3S,4S)-3-[(4-methanesulfon-ylphenoxy)meth-yl]-4-methyl-pyrrolidin-1-yl]-propan-2-yl]-benzonitrile], the pEC50 (APOL1 G2 [1]) was 6.56 and the AC50 (APOL1 G2 [2]) was 0.937 µM.
For `CS(=O)(=O)c1ccc(OCC2CN(CCc3cccc(Cl)c3)CCC2O)cc1` (single isomer, unassigned) [Compound 30, (3R,4R) or (3S,4S) or (3R,4S) or (3S,4R)-1-(3-chlorophenethyl)-3-((4-(methylsulfonyl)phenoxy)methyl)piperidin-4-ol], the pEC50 (APOL1 G2 [1]) was 5.62 and the AC50 (APOL1 G2 [2]) was 0.864 µM.
